“And” between values parts separate entries of the source, which are not always exact repeats. Equal entries are not always repeated. Where two headings read alike, the source gives them in different places.
Tested on: rgRSV224, an engineered RSV strain that encodes for eGFP
Assay type: cell-based
Protocol: To evaluate their combined antiviral effect against RSV, in vitro combination studies were performed with JNJ-53718678 (“compound A”) and various compounds with different mechanisms-of-action (“compound B”). In short, 9 concentrations of Compound A were combined with 6 or 7 concentrations of a certain compound B. HeLa cells were infected with rgRSV224, an engineered RSV strain that encodes for eGFP (Hallak L K, Spillmann D, Collins P L, Peeples M E. Glycosaminoglycan sulfation requirements for respiratory syncytial virus infection; Journal of Virology (2000), 74(22), 10508-13), in the presence of various concentrations of compound A and compound B individually or in combination.
Compound stock solutions were 5 mM in 100% DMSO, with following exceptions: ribavirin, 20 mM; A 60444, 10 mM; CR9501, 141 μM in PBS; palivizumab, 156 μM in PBS; MDT 637, 100 μM in methanol. First, the compounds were serially diluted in 3-fold dilution series in DMSO; CR9501 and palivizumab were serially diluted in cell culture medium, and MDT 637 in methanol. The concentration series were diluted 100-fold in cell culture medium to achieve a combination matrix. 10 μL of these compound solutions were transferred to black 384-well clear-bottom tissue-culture treated plates. Next, 10 μL of a […] HeLa cell suspension was added to achieve 3000 cells per well. Finally, 10 μL of diluted virus stock was added to achieve an MOI of 1. The final DMSO concentration of all wells was 0.5% DMSO, except for the MDT 637 experiment where it was 0.25% DMSO+0.25% methanol. Each combination of compound concentrations was tested in 4 replicates on 3 separate plates, resulting in a total of 12 replicates. The plates were incubated for 3 days at 37° C. in a humidified atmosphere at 5% CO2. The GFP signal was measured with PerkinElmer EnVision apparatus using a 405 nm filter.
The method of Harbron (Statistics in Medicine, 2010, DOI:10.1002/sim3916) was used to assess synergy. Using the Loewe definition, two compounds are characterized as being additive, synergistic or antagonistic by:
where d1 and d2 represent the doses of the two compounds that in combination produce an effect y, and Dy,1 and Dy,2 represent the doses of the two compounds that produce the same effect, y, when administered as a monotherapy. A 3PL model (3-parameter log-logistic model) was used for the monotherapy dose-response data, where the baseline response was fixed at one.
Following Harbron's approach, the following models were fitted to the data: • “Additive”: assuming no interaction between the two compounds • “Uniform”: assuming a constant interaction index τ across all dose combinations • “Linear A”: assuming the interaction index linearly depends on the log 10 dose of compound A: z=τ1+τ2 log 10(dA) • “Separate A”: assuming the interaction index τ takes a separate value for each dose of compound A The latter two models were also considered for compound B: • “Linear B”: assuming the interaction index linearly τ depends on the log 10 dose of compound B: τ=τ1+τ2 log 10(dB) • “Separate B”: assuming the interaction index τ takes a separate value for each dose of compound B

`CS(=O)(=O)CCCn1c(Cn2c(=O)n(CC(F)(F)F)c3ccncc32)cc2cc(Cl)ccc21` [Compound A, 3-({5-chloro-1-[3-(methylsulfonyl)propyl]-1H-indol-2-yl}methyl)-1-(2,2,2-trifluoroethyl)-1,3-dihydro-2H-imidazo[4,5-c]pyridin-2-one] was tested, and the “normalized GFP signal” value (A = 0.19 nM, B (A-60444) = 0) was 0.96, the “normalized GFP signal” value (A = 0.19 nM, B (AZ-27) = 0) was 0.98 and the “normalized GFP signal” value (A = 0.19 nM, B (CAS 851658-10-1) = 0) was 0.99. For the same molecule, the “normalized GFP signal” value (A = 0.19 nM, B (CR9501) = 0) was 1.05, the “normalized GFP signal” value (A = 0.19 nM, B (GS-5806) = 0) was 0.99 and the “normalized GFP signal” value (A = 0.19 nM, B (MDT-637) = 0) was 0.98. For the same molecule, the “normalized GFP signal” value (A = 0.19 nM, B (palivizumab) = 0) was 1.04, the “normalized GFP signal” value (A = 0.19 nM, B (pulmocide compound) = 0) was 0.96 and the “normalized GFP signal” value (A = 0.19 nM, B (ribavirin) = 0) was 0.97. For the same molecule, the “normalized GFP signal” value (A = 0.57 nM, B (A-60444) = 0) was 0.95, the “normalized GFP signal” value (A = 0.57 nM, B (AZ-27) = 0) was 0.96 and the “normalized GFP signal” value (A = 0.57 nM, B (CAS 851658-10-1) = 0) was 0.96. For the same molecule, the “normalized GFP signal” value (A = 0.57 nM, B (CR9501) = 0) was 1.01, the “normalized GFP signal” value (A = 0.57 nM, B (GS-5806) = 0) was 0.93 and the “normalized GFP signal” value (A = 0.57 nM, B (MDT-637) = 0) was 0.97. The “normalized GFP signal” value (A = 0.57 nM, B (palivizumab) = 0) was 0.98, the “normalized GFP signal” value (A = 0.57 nM, B (pulmocide compound) = 0) was 0.92 and the “normalized GFP signal” value (A = 0.57 nM, B (ribavirin) = 0) was 0.95. The “normalized GFP signal” value (A = 1.7 nM, B (A-60444) = 0) was 0.83, the “normalized GFP signal” value (A = 1.7 nM, B (AZ-27) = 0) was 0.89 and the “normalized GFP signal” value (A = 1.7 nM, B (CAS 851658-10-1) = 0) was 0.83. The “normalized GFP signal” value (A = 1.7 nM, B (CR9501) = 0) was 0.89, the “normalized GFP signal” value (A = 1.7 nM, B (GS-5806) = 0) was 0.83 and the “normalized GFP signal” value (A = 1.7 nM, B (MDT-637) = 0) was 0.85. For the same molecule, the “normalized GFP signal” value (A = 1.7 nM, B (palivizumab) = 0) was 0.86, the “normalized GFP signal” value (A = 1.7 nM, B (pulmocide compound) = 0) was 0.78 and the “normalized GFP signal” value (A = 1.7 nM, B (ribavirin) = 0) was 0.87. The “normalized GFP signal” value (A = 5.1 nM, B (A-60444) = 0) was 0.55, the “normalized GFP signal” value (A = 5.1 nM, B (AZ-27) = 0) was 0.71 and the “normalized GFP signal” value (A = 5.1 nM, B (CAS 851658-10-1) = 0) was 0.50. The “normalized GFP signal” value (A = 5.1 nM, B (CR9501) = 0) was 0.64, the “normalized GFP signal” value (A = 5.1 nM, B (GS-5806) = 0) was 0.47 and the “normalized GFP signal” value (A = 5.1 nM, B (MDT-637) = 0) was 0.43. The “normalized GFP signal” value (A = 5.1 nM, B (palivizumab) = 0) was 0.57, the “normalized GFP signal” value (A = 5.1 nM, B (pulmocide compound) = 0) was 0.56 and the “normalized GFP signal” value (A = 5.1 nM, B (ribavirin) = 0) was 0.63. For the same molecule, the “normalized GFP signal” value (A = 15 nM, B (A-60444) = 0) was 0.38, the “normalized GFP signal” value (A = 15 nM, B (AZ-27) = 0) was 0.45 and the “normalized GFP signal” value (A = 15 nM, B (CAS 851658-10-1) = 0) was 0.31. For the same molecule, the “normalized GFP signal” value (A = 15 nM, B (CR9501) = 0) was 0.41, the “normalized GFP signal” value (A = 15 nM, B (GS-5806) = 0) was 0.30 and the “normalized GFP signal” value (A = 15 nM, B (MDT-637) = 0) was 0.26. The “normalized GFP signal” value (A = 15 nM, B (palivizumab) = 0) was 0.38, the “normalized GFP signal” value (A = 15 nM, B (pulmocide compound) = 0) was 0.43 and the “normalized GFP signal” value (A = 15 nM, B (ribavirin) = 0) was 0.39. The “normalized GFP signal” value (A = 46 nM, B (A-60444) = 0) was 0.28, the “normalized GFP signal” value (A = 46 nM, B (AZ-27) = 0) was 0.25 and the “normalized GFP signal” value (A = 46 nM, B (CAS 851658-10-1) = 0) was 0.19. The “normalized GFP signal” value (A = 46 nM, B (CR9501) = 0) was 0.28, the “normalized GFP signal” value (A = 46 nM, B (GS-5806) = 0) was 0.21 and the “normalized GFP signal” value (A = 46 nM, B (MDT-637) = 0) was 0.16. For the same molecule, the “normalized GFP signal” value (A = 46 nM, B (palivizumab) = 0) was 0.28, the “normalized GFP signal” value (A = 46 nM, B (pulmocide compound) = 0) was 0.36 and the “normalized GFP signal” value (A = 46 nM, B (ribavirin) = 0) was 0.25. For the same molecule, the “normalized GFP signal” value (A = 139 nM, B (A-60444) = 0) was 0.14, the “normalized GFP signal” value (A = 139 nM, B (AZ-27) = 0) was 0.17 and the “normalized GFP signal” value (A = 139 nM, B (CAS 851658-10-1) = 0) was 0.10. The “normalized GFP signal” value (A = 139 nM, B (CR9501) = 0) was 0.21, the “normalized GFP signal” value (A = 139 nM, B (GS-5806) = 0) was 0.11 and the “normalized GFP signal” value (A = 139 nM, B (MDT-637) = 0) was 0.06. For the same molecule, the “normalized GFP signal” value (A = 139 nM, B (palivizumab) = 0) was 0.17, the “normalized GFP signal” value (A = 139 nM, B (pulmocide compound) = 0) was 0.20 and the “normalized GFP signal” value (A = 139 nM, B (ribavirin) = 0) was 0.15. The “normalized GFP signal” value (A = 417 nM, B (A-60444) = 0) was 0.07, the “normalized GFP signal” value (A = 417 nM, B (AZ-27) = 0) was 0.07 and the “normalized GFP signal” value (A = 417 nM, B (CAS 851658-10-1) = 0) was 0.06. The “normalized GFP signal” value (A = 417 nM, B (CR9501) = 0) was 0.10, the “normalized GFP signal” value (A = 417 nM, B (GS-5806) = 0) was 0.06 and the “normalized GFP signal” value (A = 417 nM, B (MDT-637) = 0) was 0.02. The “normalized GFP signal” value (A = 417 nM, B (palivizumab) = 0) was 0.09, the “normalized GFP signal” value (A = 417 nM, B (pulmocide compound) = 0) was 0.11 and the “normalized GFP signal” value (A = 417 nM, B (ribavirin) = 0) was 0.08. The “normalized GFP signal” value (A = 1250 nM, B (A-60444) = 0) was 0.04, the “normalized GFP signal” value (A = 1250 nM, B (AZ-27) = 0) was 0.04 and the “normalized GFP signal” value (A = 1250 nM, B (CAS 851658-10-1) = 0) was 0.04. For the same molecule, the “normalized GFP signal” value (A = 1250 nM, B (CR9501) = 0) was 0.06, the “normalized GFP signal” value (A = 1250 nM, B (GS-5806) = 0) was 0.03 and the “normalized GFP signal” value (A = 1250 nM, B (MDT-637) = 0) was −0.00. For the same molecule, the “normalized GFP signal” value (A = 1250 nM, B (palivizumab) = 0) was 0.05, the “normalized GFP signal” value (A = 1250 nM, B (pulmocide compound) = 0) was 0.06 and the “normalized GFP signal” value (A = 1250 nM, B (ribavirin) = 0) was 0.04.
In the case of `Cc1nnnn1/N=C/c1ccc(O)c(C(c2ccc(O)cc2)c2cc(/C=N/n3nnnc3C)ccc2O)c1` [MDT-637, reference compound], the “normalized GFP signal” value is reported as 0.99 and 0.95, the “normalized GFP signal” value (A = 0, B (MDT-637) = 0.038) is reported as 1.01 and the “normalized GFP signal” value (A = 0, B (MDT-637) = 1) is reported as 0.93. The “normalized GFP signal” value (A = 0, B (MDT-637) = 3.1) was 0.75, the “normalized GFP signal” value (A = 0, B (MDT-637) = 9.3) was 0.14 and the “normalized GFP signal” value (A = 0, B (MDT-637) = 28) was 0.01.
